# Source: US9637451B2, “Indole compound” (ASTELLAS PHARMA INC., priority 2014, dated 2017)
# Experiments:
# [1] = test system: SD female rats; test: Effect of test compound on urethral pressure in anesthetized rats; type: in vivo, rat; settings: intravenous
# Excerpt: SD female rats were anesthetized with urethane and subjected to laparotomy. Then, the bladder apex was incised and a catheter was inserted from the bladder apex. Further, the catheter tip was ligated and fixed to be located in the proximal urethra portion. The catheter was connected to a pressure transducer and an infusion pump. Further, a catheter for administrating the compound was fitted into the femoral vein. Physiological saline was continuously infused into the urethra and the perfusion pressure in the urethra was measured. After the urethral pressure was stabilized, the test compound that had been dissolved in physiological saline, or physiological saline including 5% dimethylacetamide and 0.5% Cremophor was administered intravenously at 0.01 mg/kg or 0.1 mg/kg, and a change in urethral pressures was measured.
# Further, the results of administering an active metabolite of midodrine (ST-1059: purchased from CHEMIZON) (J. Urology, 118, 980-982 (1977)) which is an α1 adrenoceptor agonist and is confirmed to have a clinical effect on stress urinary incontinence at doses, 0.01 mg/kg and, 0.1 mg/kg in rats, presumed to correspond to the clinical doses are referenced and shown in the Tables below.
# The increment value in the urethral pressures of ramelteon and the Example compounds of the present invention at the time of administration are shown in Table 3. Ex represents Example No. of the test compound and N.T represents Not Tested.
# [2] = CSF-to-plasma unbound concentration ratio in rat after intravenous administration; type: in vivo; settings: 10 minutes after the intravenous administration
# Experimental: A test compound (100 μg/mL, 50% acetonitrile solution) at 1% (v/v) with respect to the amount of the plasma was added to rat plasma, and dispensed to a sample for a supernatant and a sample for the plasma. The sample for a supernatant was ultracentrifuged at 436,000×g and 37° C. for 140 minutes, and the sample for the plasma was incubated at 37° C. for 140 minutes.
# After 140 minutes, the sample for a supernatant after the ultracentrifugation and the sample for the plasma were taken, and mixed with the blank plasma or the blank supernatant, respectively. Acetonitrile including an internal standard material was added to each of the samples with the removal of protein, and after the centrifugation at 2150×g and 4° C. for 10 minutes the supernatant was injected into LC-MS/MS.
# The unbound fraction in the plasma was calculated by the following equation.
# To the plasma of a rat was added a test compound (0.2 mM, 50% acetonitrile solution) in an amount corresponding to 1% (v/v) of the plasma amount, and 200 μL of obtained plasma sample was filled into a plasma chamber of a RED device insert. A buffer chamber was filled with 350 μL of PBS, followed by performing equilibrium dialysis by stirring in a CO2 incubator at 37° C. for 16 hours. The sample after the completion of the equilibrium dialysis was recovered and the volume of the plasma sample was measured. To the plasma sample after the completion of the equilibrium dialysis were added PBS, a 20 mM ammonium formate buffer, and acetonitrile including an internal standard material. Similarly, to the PBS sample after the completion of the equilibrium dialysis was added a blank plasma, a 20 mM ammonium formate buffer, and acetonitrile including an internal standard material. This sample was left to stand at 4° C. for 30 minutes and then centrifuged 1500×g for 10 minutes, and the supernatant was measured by LC-MS/MS. The unbound fraction in the plasma was calculated by the following equation. fp=Cf/{(Cp−Cf)(V/V0)+Cf}
# At 15 minutes after intravenously administration of the test compound to the rats, the plasma and CSF were collected. A 50% acetonitrile solution and an acetonitrile including internal standard material were added to the collected plasma or CSF. After centrifuging this sample at 4° C. and 2150×g for 10 minutes, the supernatant was measured by LC-MS/MS, and the total concentration of the test compound in the plasma (Cplasma,t) and the concentration of the test compound in CSF (CCSF) were obtained. The unbound concentration in the plasma (Cplasma,u) of the test compound and the CSF-to-plasma unbound concentration ratio (Kp,uu,CSF) of the test compound was calculated by the following equation.
# The Kp,uu,CSF values and the Kp,brain values of ramelteon and some Example compounds of the present invention are shown in Table 4. Ex represents Example No. of the test compound. Unless otherwise specified, the Kp,uu,CSF was calculated using the fp values determined by an ultracentrifugation method. Further, N.T. represents Not Tested.
# (Ramelteon represents the values of Kp,uu,CSF after 10 minutes after the intravenous administration. Further, the Kp,uu,CSF of Examples 37 and 38 was calculated using the fp values determined by an equilibrium dialysis method. In addition, N.D. denotes the concentration of the test compound in CSF that is no higher than the detection limit.)
# [3] = test system: rat; test: Measurement test of electroencephalogram in rat (sleep-awake cycle); type: in vivo
# Excerpt: After the completion of a quarantine period, the animals showing no abnormal health condition were subjected to an electroencephalogram electrode chronic implantation surgery with reference to brain atlas of Pellegrino (Plenum Press, New York (1979)), or the like. Under anesthesia with pentobarbital sodium, the rat was calibrated in a brain stereotaxic apparatus. In the frontal cortex, a monopolar silver ball electrode having a diameter of the tip of about 1 mm was placed on a hard film of the brain. Into the hippocampus, a laminated bipolar electrodes made of stainless steel was stuck. The reference electrode was screwed around the olfactory brain. Further, as for the electromyogram measurement, the lead wire was implanted in the both electrodes about 1 cm between the electrodes in the neck portion. The other end was exposed to the head portion subcutaneously. The electrodes and the lead wires were subjected to soldering with connector sockets and fixed to the skull with a dental resin or the like.
# The rats were accommodated in a measurement cage under rat feeding and water supply on the morning of the day of administration, and accustomed to the measurement environment. After measuring the weight using an electronic scale balance, a lead wire and a connector socket were connected 30 minutes or more before the start of the electroencephalogram measurement, and the rat was accustomed in the measurement state under no anesthesia and no custody. The test compounds were intraperitoneally or orally administered to the rats and the electroencephalogram was measured continuously until 6 hours after the administration.
# Ramelteon: solvent, 0.1 mg/kg, 1 mg/kg, and 10 mg/kg; intraperitoneal administration
# Example 1: solvent, 3 mg/kg, 30 mg/kg, and 300 mg/kg; oral administration
# Example 6: solvent, 10 mg/kg, 30 mg/kg, and 300 mg/kg; oral administration
# The electrical signals of electroencephalogram and of electromyogram were applied to an electroencephalogram system and an electroencephalogram frequency analysis program of a personal computer was used to acquire the wave form of the electroencephalogram from the electroencephalograph system. In addition, the image signals of the electroencephalogram waveform were applied to an EEG video system and recorded on DVD-R using a DVD recorder. The behavior observation was carried out through a video camera at the same time as the electroencephalogram measurement and the images were also recorded on DVD-R using DVD recorder.
# The presence or absence of abnormality in the electroencephalogram waveform in up to 6 hours from immediately after the administration, to each animal, respectively, was observed.
# The analysis of a sleep-awake cycle was carried out using a sleep stage display-supporting program (MTS50061B, Japan Santec Corporation) based on the electroencephalogram waveforms acquired with an electroencephalogram frequency analysis program. Using the index of electroencephalogram, electromyogram, and behavior, the sleep steps were classified into an awake phase, a rest phase, a slow wave light sleep (S.W.L.S.) phase, a slow wave deep sleep (S.W.D.S.) phase, and a fast wave sleep (F.W.S., REM sleep) phase. Further, the rest phase, the slow wave light sleep phase, and the slow wave deep sleep phase were summed to determine a slow wave sleep (S.W.S., Non-REM sleep) phase. […] As the assessment criteria in the respective sleep steps, the criteria described in Japanese Pharmacological Journal 84, 25-89 (1984) were used.
# [4] = test system: isolated urethra in a rat; settings: Patent Document 5; cited from earlier work
smiles,measurement,setting,value
"CCC(=O)NCC[C@@H]1CCc2ccc3c(c21)CCO3 [Ramelteon, ramelteon, reference compound]",Increment value in the urethral pressures compared with ST-1059,[1],equal to or more than that of ST-1059
same,"Kp,uu,CSF",[2],1.74
same,Kp uu at 10 min,"[2]; CSF and plasma (unbound), iv",> 1
same,occupancy of the sleep step of electroencephalogram,"[3]; 0.1 mg/kg intraperitoneal, up to 6 hours",there is a tendency that the occupancy of the sleep step of electroencephalogram from a dose of 0.1 mg/kg increases
same,occupancy of the respective sleep steps,"[3]; 1 mg/kg intraperitoneal, up to 6 hours",significantly increases
same,sleep action,"[3]; intraperitoneal 0.1, 1 and 10 mg/kg",there is a sleep action
same,"contraction of isolated urethra, increase of urethral pressure",[4],contract the isolated urethra in a rat to increase the urethral pressure of the rat
